PubChem BioAssay AID248 (DTP/NCI, 2004)
Values joined by “and” are separate entries in the source; they are usually repeats but may differ in a detail not shown here. Identical values can stand only once. Toxic doses and inconclusive results are not listed. Rule as the data show it: active = T/C of 150% or more; inactive = T/C below 125%.

System: L1210 leukemia ip in BDF1 mice, survival T/C
Assay: NCI In Vivo Anticancer Drug Screen. Data for tumor model L1210 Leukemia (intraperitoneal) in B6D2F1 (BDF1) mice
Settings: endpoint: mean survival time, higher = longer survival
Method in brief: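 Mice bearing the transplanted tumor received compound or vehicle. Survival of the treated group was divided by that of the vehicle-treated control group to give the ratio.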

[1] = dose: 100.0 mg/kg/injection, schedule: Q04DX002 (ip), vehicle: Klucel (hydroxypropylcellulose) (HPC)
[2] = dose: 200.0 mg/kg/injection, schedule: Q04DX002 (ip), vehicle: Klucel (hydroxypropylcellulose) (HPC)
[3] = dose: 400.0 mg/kg/injection, schedule: Q04DX002 (ip), vehicle: Klucel (hydroxypropylcellulose) (HPC)
[4] = dose: 100.0 mg/kg/injection, schedule: Q04DX003 (ip), vehicle: saline with Tween-80
[5] = dose: 200.0 mg/kg/injection, schedule: Q04DX003 (ip), vehicle: saline with Tween-80
[6] = dose: 400.0 mg/kg/injection, schedule: Q04DX003 (ip), vehicle: saline with Tween-80
[7] = dose: 50.0 mg/kg/injection, schedule: Q01DX009 (ip), vehicle: Klucel (hydroxypropylcellulose) (HPC)
[8] = dose: 100.0 mg/kg/injection, schedule: Q01DX009 (ip), vehicle: Klucel (hydroxypropylcellulose) (HPC)
[9] = dose: 200.0 mg/kg/injection, schedule: Q01DX009 (ip), vehicle: Klucel (hydroxypropylcellulose) (HPC)
[10] = dose: 100.0 mg/kg/injection, schedule: Q04DX002 (ip), vehicle: saline with Tween-80
[11] = dose: 200.0 mg/kg/injection, schedule: Q04DX002 (ip), vehicle: saline with Tween-80
[12] = dose: 100.0 mg/kg/injection, schedule: Q01DX009 (ip), vehicle: saline
[13] = dose: 200.0 mg/kg/injection, schedule: Q01DX009 (ip), vehicle: saline
[14] = dose: 400.0 mg/kg/injection, schedule: Q04DX002 (ip), vehicle: saline with Tween-80

Measured: T/C

O=C(COc1ccc(Cl)cc1Cl)OC(=O)COc1ccc(Cl)cc1Cl
inactive: dose: 12.5 mg/kg/injection, schedule: Q01DX009 (ip), vehicle: carboxymethylcellulose (CMC) 100 % of control and 106 % of control | dose: 25.0 mg/kg/injection, schedule: Q01DX009 (ip), vehicle: carboxymethylcellulose (CMC) 102 % of control and 103 % of control | dose: 50.0 mg/kg/injection, schedule: Q01DX001 (ip), vehicle: carboxymethylcellulose (CMC) 92 % of control | dose: 50.0 mg/kg/injection, schedule: Q04DX003 (ip), vehicle: carboxymethylcellulose (CMC) 92 % of control | dose: 100.0 mg/kg/injection, schedule: Q01DX001 (ip), vehicle: carboxymethylcellulose (CMC) 97 % of control | dose: 100.0 mg/kg/injection, schedule: Q01DX009 (ip), vehicle: carboxymethylcellulose (CMC) 94 % of control | [1] 95 % of control | dose: 100.0 mg/kg/injection, schedule: Q04DX002 (ip), vehicle: carboxymethylcellulose (CMC) 97 % of control and 100 % of control | dose: 100.0 mg/kg/injection, schedule: Q04DX003 (ip), vehicle: carboxymethylcellulose (CMC) 94 % of control | dose: 200.0 mg/kg/injection, schedule: Q01DX001 (ip), vehicle: carboxymethylcellulose (CMC) 89 % of control | [2] 95 % of control | dose: 200.0 mg/kg/injection, schedule: Q04DX002 (ip), vehicle: carboxymethylcellulose (CMC) 97 % of control and 98 % of control | [3] 98 % of control

CCN(C(=O)CC(C)=O)c1ccccc1
inactive: dose: 100.0 mg/kg/injection, schedule: Q01DX009 (ip), vehicle: saline with Tween-80 91 % of control | [4] 98 % of control | dose: 200.0 mg/kg/injection, schedule: Q01DX009 (ip), vehicle: saline with Tween-80 93 % of control | [5] 98 % of control | dose: 400.0 mg/kg/injection, schedule: Q01DX009 (ip), vehicle: saline with Tween-80 94 % of control | [6] 98 % of control

COc1ccc([N+](=O)[O-])cc1NC(=O)Nc1ccc(Nc2ccccc2)cc1
inactive: [7] 97 % of control | [8] 94 % of control | [9] 90 % of control

Cc1c([N+](=O)[O-])cc(C(C)(C)C)c(OC(=O)c2ccccc2)c1[N+](=O)[O-]
inactive: [10] 123 % of control | [11] 116 % of control

NC(=O)C(NC(=O)c1ccccc1)SCc1ccccc1 (stereo not drawn)
inactive: dose: 25.0 mg/kg/injection, schedule: Q04DX002 (ip), vehicle: Klucel (hydroxypropylcellulose) (HPC) 98 % of control | dose: 50.0 mg/kg/injection, schedule: Q04DX002 (ip), vehicle: Klucel (hydroxypropylcellulose) (HPC) 95 % of control | [1] 95 % of control

CC(=O)Nc1cc(C)cc(NC(C)=O)c1C
inactive: dose: 75.0 mg/kg/injection, schedule: Q01DX001 (ip), vehicle: carboxymethylcellulose (CMC) 94 % of control | dose: 300.0 mg/kg/injection, schedule: Q01DX001 (ip), vehicle: carboxymethylcellulose (CMC) 90 % of control

COc1ccc(OC)c(/C=C2\N=C(c3ccccc3)OC2=O)c1
inactive: dose: 100.0 mg/kg/injection, schedule: Q01DX001 (ip), vehicle: acetone 97 % of control | [12] 91 % of control | dose: 100.0 mg/kg/injection, schedule: Q04DX003 (ip), vehicle: saline 100 % of control | dose: 200.0 mg/kg/injection, schedule: Q01DX001 (ip), vehicle: acetone 101 % of control | [13] 94 % of control | dose: 200.0 mg/kg/injection, schedule: Q04DX003 (ip), vehicle: saline 96 % of control | dose: 400.0 mg/kg/injection, schedule: Q01DX001 (ip), vehicle: acetone 92 % of control | dose: 400.0 mg/kg/injection, schedule: Q01DX009 (ip), vehicle: saline 93 % of control | dose: 400.0 mg/kg/injection, schedule: Q04DX003 (ip), vehicle: saline 98 % of control

CNCc1ccccc1C(O)c1ccc(Cl)cc1 (stereo not drawn)
inactive: dose: 3.12 mg/kg/injection, schedule: Q01DX009 (ip), vehicle: Klucel (hydroxypropylcellulose) (HPC) 98 % of control | dose: 6.25 mg/kg/injection, schedule: Q01DX009 (ip), vehicle: Klucel (hydroxypropylcellulose) (HPC) 96 % of control | dose: 12.5 mg/kg/injection, schedule: Q01DX009 (ip), vehicle: Klucel (hydroxypropylcellulose) (HPC) 96 % of control | dose: 25.0 mg/kg/injection, schedule: Q01DX009 (ip), vehicle: Klucel (hydroxypropylcellulose) (HPC) 94 % of control | dose: 25.0 mg/kg/injection, schedule: Q04DX003 (ip), vehicle: Klucel (hydroxypropylcellulose) (HPC) 97 % of control and 98 % of control | [7] 102 % of control | dose: 50.0 mg/kg/injection, schedule: Q04DX003 (ip), vehicle: Klucel (hydroxypropylcellulose) (HPC) 94 % of control | [8] 86 % of control | dose: 100.0 mg/kg/injection, schedule: Q04DX003 (ip), vehicle: Klucel (hydroxypropylcellulose) (HPC) 104 % of control | dose: 200.0 mg/kg/injection, schedule: Q04DX003 (ip), vehicle: Klucel (hydroxypropylcellulose) (HPC) 122 % of control

CCOC(=O)C/C(C)=N\NC(N)=O
inactive: [1] 104 % of control | [2] 101 % of control | [3] 97 % of control

CCC(C(=O)NNC(=O)c1cc(OC)c(OC)c(OC)c1)c1ccccc1 (stereo not drawn)
inactive: dose: 100.0 mg/kg/injection, schedule: Q01DX001 (ip), vehicle: saline with Tween-80 96 % of control | [10] 97 % of control and 101 % of control | [4] 100 % of control and 90 % of control | dose: 200.0 mg/kg/injection, schedule: Q01DX001 (ip), vehicle: saline with Tween-80 98 % of control | [11] 97 % of control and 98 % of control | [5] 93 % of control and 104 % of control | dose: 400.0 mg/kg/injection, schedule: Q01DX001 (ip), vehicle: saline with Tween-80 93 % of control | [14] 101 % of control and 90 % of control | [6] 92 % of control and 93 % of control

CCOC(=O)Cc1ccc2ccccc2c1
inactive: [4] 100 % of control | [5] 96 % of control | [6] 104 % of control

CCN(CC)c1cc(C)c2cc(Cc3ccc4nc(N(CC)CC)cc(C)c4c3)ccc2n1
inactive: dose: 100.0 mg/kg/injection, schedule: Q01DX001 (ip), vehicle: saline 90 % of control | dose: 200.0 mg/kg/injection, schedule: Q01DX001 (ip), vehicle: saline 96 % of control | dose: 400.0 mg/kg/injection, schedule: Q01DX001 (ip), vehicle: saline 90 % of control

COc1c(C(C)(C)C)cc(/C=C(\NC(=O)c2ccccc2)C(=O)O)cc1C(C)(C)C
inactive: dose: 100.0 mg/kg/injection, schedule: Q01DX001 (ip), vehicle: Klucel (hydroxypropylcellulose) (HPC) 98 % of control | dose: 200.0 mg/kg/injection, schedule: Q01DX001 (ip), vehicle: Klucel (hydroxypropylcellulose) (HPC) 92 % of control

O=C(O)/C=C(/Oc1ccc(Cl)cc1Cl)C(=O)O
inactive: [1] 97 % of control | [10] 100 % of control | [2] 87 % of control | [11] 100 % of control | [3] 110 % of control | [14] 100 % of control

CCOC(=O)C(=CN(C(C)C)C(C)C)C(=O)OCC
inactive: dose: 50.0 mg/kg/injection, schedule: Q01DX009 (ip), vehicle: saline 100 % of control | [12] 98 % of control | [4] 94 % of control | [13] 101 % of control | [5] 100 % of control

CSc1ccccc1N=NN(C)C
inactive: [8] 101 % of control | [9] 97 % of control and 105 % of control | dose: 400.0 mg/kg/injection, schedule: Q01DX009 (ip), vehicle: Klucel (hydroxypropylcellulose) (HPC) 95 % of control and 100 % of control | dose: 800.0 mg/kg/injection, schedule: Q01DX009 (ip), vehicle: Klucel (hydroxypropylcellulose) (HPC) 121 % of control
